Laboratory results published in US12612424B2, “HPK1 inhibitors and uses thereof” (Regor Pharmaceuticals, Inc., priority 2019, dated 2026).
Read-outs that look alike come from different tables or passages of the source.

Legend:
HPK1 = HPK1 (Homo sapiens, UniProt Q92918); test: HPK1 biochemical assay (ADP-GLO Kinase Assay)
Outline: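 HPK1 (0.6 ng/μL final) activity was followed with MBP substrate and 10 μM ATP in Tris pH 7.5/MgCl2/BSA/DTT buffer, measured by ADP-Glo luminescence. Compounds were tested as 3-fold dilutions from 10 μM. IC50 came from a three-parameter logistic fit, with inhibition normalised to high/low controls.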

JAK3 = molecular target: T1, JAK3 (Homo sapiens, UniProt P52333); test: JAK3 biochemical assay (ADP-GLO Kinase Assay); settings: for JAKs/HPK1 IC50 Ratio, B* / JAKs/HPK1 IC50 Ratio, N*: ratio of JAK3 IC50 to HPK1 IC50; for JAKs/HPK1 IC50 Ratio, B*: first testing facility; for JAKs/HPK1 IC50 Ratio, N*: second testing facility
T1 construct: purchased Thermo fisher PV3855
Outline: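 Human JAK3 (0.78 ng) with 0.2 μg/μL Poly(E4Y1) and 4 μM ATP in 40 mM Tris pH 7.5, 20 mM MgCl2, 0.1 mg/ml BSA, 50 μM DTT, 1% DMSO; 60 min at 25 °C. ADP formed read by ADP-Glo luminescence. 10-dose 3-fold series from 10 μM; IC50 by three-parameter logistic fit.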

[1] = B*: testing performed in a first testing facility, read-out: HPK1 IC50 (nM) Relative, B*
[2] = B*: testing performed in a first testing facility, read-out: JAK3 IC50 (nM) Relative, B*
[3] = N*: testing performed in a second testing facility, read-out: HPK1 IC50 (nM) Relative, N*
[4] = N*: testing performed in a second testing facility, read-out: JAK3 IC50 (nM) Relative, N*

Chain of HPK1 (Q92918 whole entry): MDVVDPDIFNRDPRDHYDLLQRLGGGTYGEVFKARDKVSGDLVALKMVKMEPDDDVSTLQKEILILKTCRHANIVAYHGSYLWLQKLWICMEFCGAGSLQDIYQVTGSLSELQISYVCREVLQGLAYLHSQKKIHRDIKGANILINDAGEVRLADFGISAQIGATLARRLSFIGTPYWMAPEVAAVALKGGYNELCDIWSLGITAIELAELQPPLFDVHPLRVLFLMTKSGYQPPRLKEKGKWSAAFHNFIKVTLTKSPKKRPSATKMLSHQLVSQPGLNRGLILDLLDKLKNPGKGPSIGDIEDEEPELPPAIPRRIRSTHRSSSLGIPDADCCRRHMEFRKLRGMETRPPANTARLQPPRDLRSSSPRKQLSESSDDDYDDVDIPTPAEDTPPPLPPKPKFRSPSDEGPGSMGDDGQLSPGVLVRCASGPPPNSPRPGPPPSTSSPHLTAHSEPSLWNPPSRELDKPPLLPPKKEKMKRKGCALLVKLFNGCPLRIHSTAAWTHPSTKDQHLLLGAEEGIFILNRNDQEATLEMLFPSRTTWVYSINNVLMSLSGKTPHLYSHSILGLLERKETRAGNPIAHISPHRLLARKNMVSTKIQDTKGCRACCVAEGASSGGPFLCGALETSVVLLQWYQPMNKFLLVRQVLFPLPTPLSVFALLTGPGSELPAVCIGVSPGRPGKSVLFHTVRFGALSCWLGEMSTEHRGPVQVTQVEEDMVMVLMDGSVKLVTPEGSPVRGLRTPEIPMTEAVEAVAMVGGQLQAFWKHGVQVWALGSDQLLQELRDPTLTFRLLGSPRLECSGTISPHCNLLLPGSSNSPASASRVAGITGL
T1 sequence (P52333 781-1124 limits assumed): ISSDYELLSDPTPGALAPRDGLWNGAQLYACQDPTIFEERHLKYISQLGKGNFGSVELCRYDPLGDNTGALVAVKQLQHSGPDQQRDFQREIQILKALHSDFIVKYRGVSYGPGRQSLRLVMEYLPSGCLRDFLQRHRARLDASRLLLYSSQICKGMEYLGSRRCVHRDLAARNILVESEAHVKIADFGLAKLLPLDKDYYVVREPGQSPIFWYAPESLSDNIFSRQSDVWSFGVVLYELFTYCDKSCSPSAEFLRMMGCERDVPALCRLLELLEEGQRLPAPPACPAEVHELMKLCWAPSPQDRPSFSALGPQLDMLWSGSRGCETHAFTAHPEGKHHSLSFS

| IC50 (HPK1; [1]) | IC50 (JAK3; [2]) | JAKs/HPK1 IC50 Ratio, B* (JAK3) | IC50 (HPK1; [3]) | IC50 (JAK3; [4]) | JAKs/HPK1 IC50 Ratio, N* (JAK3) | SMILES |
| --- | --- | --- | --- | --- | --- | --- |
| ≤ 100 nM | 100 to 500 nM |  |  |  |  | COc1cc2c(cc1Nc1ncc(Cl)c(N3CC(CO)c4ccccc43)n1)CN(C)CC2 (stereo not shown) [Example 87] |
| ≤ 100 nM | 100 to 500 nM | 253 |  |  |  | COc1cc2c(cc1Nc1ncc(Cl)c(N3CC(C)(CC(=O)O)c4ccc(F)cc43)n1)CN(C)CC2 (single isomer, unassigned) [Example 152] |
| ≤ 100 nM | > 1000 nM | 132 |  |  |  | COc1cc2c(cc1Nc1ncc(Cl)c(N3CC(C)(CC(=O)O)c4ccccc43)n1)CN(C)CC2 (single isomer, unassigned) [Example 147] |
| ≤ 100 nM | ≤ 100 nM | 6 |  |  |  | COc1cc2c(cc1Nc1ncc(Cl)c(N3CC(C)(C(=O)O)c4cc(F)ccc43)n1)CN(C)CC2 (stereo not shown) [Example 125] |
| ≤ 100 nM | > 1000 nM | 358 |  |  |  | COc1cc2c(cc1Nc1ncc(Cl)c(N3CC(C)(CC(=O)O)c4ccc(F)cc43)n1)CN(C)CC2 (single isomer, unassigned) [Example 153] |
| ≤ 100 nM | ≤ 100 nM | 187 |  |  |  | COc1cc2c(cc1Nc1ncc(Cl)c(N3CC(C)(CC(=O)O)c4ccc(F)cc43)n1)CN(C)CC2 (stereo not shown) [Example 151] |
| ≤ 100 nM | > 1000 nM | 337 | ≤ 100 nM | 100 to 500 nM | 601 | COc1cc2c(cc1Nc1ncc(Cl)c(N3CCc4ccccc43)n1)CN(C)CC2 [Example 4, N-(5-Chloro-4-(indolin-1-yl)pyrimidin-2-yl)-6-methoxy-2-methyl-1,2,3,4-tetrahydroisoquinolin-7-amine] |
| ≤ 100 nM | ≤ 100 nM | 100 |  |  |  | CNC(=O)C1(C)CN(c2nc(Nc3cc4c(cc3OC)CCN(C)C4)ncc2Cl)c2ccccc21 (stereo not shown) [Example 122] |
| ≤ 100 nM | ≤ 100 nM | 100 |  |  |  | COc1cc2c(cc1Nc1ncc(Cl)c(N3CC(C#N)c4ccccc43)n1)CN(C)CC2 (stereo not shown) [Example 99, 1-(5-Chloro-2-((6-methoxy-2-methyl-1,2,3,4-tetrahydroisoquinolin-7-yl)amino)pyrimidin-4-yl)indoline-3-carbonitrile] |
| ≤ 100 nM | ≤ 100 nM | 80 |  |  |  | COc1cc2c(cc1Nc1ncc(Cl)c(N3CC(C(=O)O)c4ccccc43)n1)CN(C)CC2 (single isomer, unassigned) [Example 96] |
| ≤ 100 nM | > 1000 nM | 476 |  |  |  | COC(=O)CC1(C)CN(c2nc(Nc3cc4c(cc3OC)CCN(C)C4)ncc2Cl)c2ccccc21 (stereo not shown) [Example 145] |
| ≤ 100 nM | 100 to 500 nM | 192 |  |  |  | COc1cc2c(cc1Nc1ncc(Cl)c(N3CC(C)(CC(=O)O)c4ccccc43)n1)CN(C(C)C)CC2 (stereo not shown) [Example 158, 2-(1-(5-Chloro-2-((2-isopropyl-6-methoxy-1,2,3,4-tetrahydroisoquinolin-7-yl)amino)pyrimidin-4-yl)-3-methylindolin-3-yl)acetic acid] |
| ≤ 100 nM | 100 to 500 nM | 176 |  |  |  | CCN1CCc2cc(OC)c(Nc3ncc(Cl)c(N4CC(C)(CC(=O)O)c5ccccc54)n3)cc2C1 (stereo not shown) [Example 157, 2-(1-(5-Chloro-2-((2-ethyl-6-methoxy-1,2,3,4-tetrahydroisoquinolin-7-yl)amino)pyrimidin-4-yl)-3-methylindolin-3-yl)acetic acid] |
| ≤ 100 nM | ≤ 100 nM | 50 |  |  |  | COc1cc2c(cc1Nc1ncc(Cl)c(N3CC(C)(C#N)c4ccccc43)n1)CN(C)CC2 (stereo not shown) [Example 121, 1-(5-Chloro-2-((6-methoxy-2-methyl-1,2,3,4-tetrahydroisoquinolin-7-yl)amino)pyrimidin-4-yl)-3-methylindoline-3-carbonitrile] |
| ≤ 100 nM | 500 to 1000 nM | 438 |  |  |  | CNC(=O)Cc1cn(-c2nc(Nc3cc4c(cc3OC)CCN(C)C4)ncc2Cl)c2ccccc12 [Example 136] |

More lines, now with the values behind:

| SMILES | IC50 (HPK1; [1]) | IC50 (JAK3; [2]) | JAKs/HPK1 IC50 Ratio, B* (JAK3) | IC50 (HPK1; [3]) | IC50 (JAK3; [4]) | JAKs/HPK1 IC50 Ratio, N* (JAK3) |
| --- | --- | --- | --- | --- | --- | --- |
| COc1cc2c(cc1Nc1ncc(Cl)c(N3CCc4cc(C(F)F)ccc43)n1)CN(C)CC2 [Example 90, N-(5-chloro-4-(5-(difluoromethyl)indolin-1-yl)pyrimidin-2-yl)-6-methoxy-2-methyl-1,2,3,4-tetrahydroisoquinolin-7-amine] | ≤ 100 nM | > 1000 nM | 413 |  |  |  |
| COc1cc2c(cc1Nc1ncc(Cl)c(N3CC(C(=O)O)c4cc(F)ccc43)n1)CN(C)CC2 (stereo not shown) [Example 104] | ≤ 100 nM | ≤ 100 nM | 45 |  |  |  |
| COc1cc2c(cc1Nc1ncc(Cl)c(-n3cc(CC(=O)O)c4ccccc43)n1)CN(C)CC2 [Example 129] | ≤ 100 nM | 500 to 1000 nM | 640 |  |  |  |
| COc1cc2c(cc1Nc1ncc(Cl)c(N3CC(C(=O)O)c4ccc(F)cc43)n1)CN(C)CC2 (stereo not shown) [Example 105] | ≤ 100 nM | 100 to 500 nM | 140 |  |  |  |
| CN1CCc2ccc(Nc3ncc(Cl)c(N4CCc5ccccc54)n3)cc2C1 [Example 14, N-(5-Chloro-4-(indolin-1-yl)pyrimidin-2-yl)-2-methyl-1,2,3,4-tetrahydroisoquinolin-7-amine] | ≤ 100 nM | ≤ 100 nM | 6 | ≤ 100 nM | ≤ 100 nM | 11 |
| COc1cc2c(cc1Nc1ncc(Cl)c(N3CC(C(=O)O)c4c(OC)cccc43)n1)CN(C)CC2 (stereo not shown) [Example 108, 1-(5-Chloro-2-((6-methoxy-2-methyl-1,2,3,4-tetrahydroisoquinolin-7-yl)amino)pyrimidin-4-yl)-4-methoxyindoline-3-carboxylic acid] | ≤ 100 nM | > 1000 nM | 886 |  |  |  |
| COc1cc2c(cc1Nc1ncc(Cl)c(-n3cc(CC(N)=O)c4ccccc43)n1)CN(C)CC2 [Example 133] | ≤ 100 nM | > 1000 nM | 870 |  |  |  |
| COc1cc2c(cc1Nc1ncc(Cl)c(-n3cc(S(N)(=O)=O)c4ccccc43)n1)CN(C)CC2 [Example 83, 1-(5-Chloro-2-((6-methoxy-2-methyl-1,2,3,4-tetrahydroisoquinolin-7-yl)amino)pyrimidin-4-yl)-1H-indole-3-sulfonamide] | ≤ 100 nM | > 1000 nM | 232 |  |  |  |
| COc1cc2c(cc1Nc1ncc(C#N)c(N3CC(C(=O)O)c4ccccc43)n1)CN(C)CC2 (stereo not shown) [Example 110, 1-(5-Cyano-2-((6-methoxy-2-methyl-1,2,3,4-tetrahydroisoquinolin-7-yl)amino)pyrimidin-4-yl)indoline-3-carboxylic acid] | ≤ 100 nM | > 1000 nM | 477 |  |  |  |
| COc1cc2c(cc1Nc1ncc(Cl)c(N3CC(C(=O)O)C4(CCCCC4)C3)n1)CN(C)CC2 (stereo not shown) [Example 167, 2-(5-Chloro-2-((6-methoxy-2-methyl-1,2,3,4-tetrahydroisoquinolin-7-yl)amino)pyrimidin-4-yl)-2-azaspiro[4.5]decane-4-carboxylic acid] | ≤ 100 nM | > 1000 nM | 995 |  |  |  |
| COc1cc2c(cc1Nc1ncc3cc(C#N)n(-c4ccccc4)c3n1)CN(C)CC2 [Example 164, 2-((6-Methoxy-2-methyl-1,2,3,4-tetrahydroisoquinolin-7-yl)amino)-7-phenyl-7H-pyrrolo[2,3-d]pyrimidine-6-carbonitrile] | ≤ 100 nM | 500 to 1000 nM | 306 |  |  |  |
| COc1cc2c(cc1Nc1ncc(Cl)c(-n3nc(CC(=O)O)c4ccccc43)n1)CN(C)CC2 [Example 141] | ≤ 100 nM | > 1000 nM | 541 |  |  |  |
| COc1cc2c(cc1Nc1ncc(Cl)c(N3CCc4ncccc43)n1)CN(C)CC2 [Example 16, N-(5-chloro-4-(2,3-dihydro-1H-pyrrolo[3,2-b]pyridin-1-yl)pyrimidin-2-yl)-6-methoxy-2-methyl-1,2,3,4-tetrahydroisoquinolin-7-amine] | ≤ 100 nM | > 1000 nM |  |  |  |  |
| COc1cc2c(cc1Nc1ncc(F)c(N3CC(C(=O)O)c4ccccc43)n1)CN(C)CC2 (stereo not shown) [Example 109, 1-(5-Fluoro-2-((6-methoxy-2-methyl-1,2,3,4-tetrahydroisoquinolin-7-yl)amino)pyrimidin-4-yl)indoline-3-carboxylic acid] | ≤ 100 nM | 500 to 1000 nM | 269 |  |  |  |
| COc1cc2c(cc1Nc1ncc(Cl)c(N3CCc4ccc(Cl)cc43)n1)CN(C)CC2 [Example 18, N-(5-chloro-4-(6-chloroindolin-1-yl)pyrimidin-2-yl)-6-methoxy-2-methyl-1,2,3,4-tetrahydroisoquinolin-7-amine] | ≤ 100 nM | > 1000 nM | >446 |  |  |  |
| COc1cc2c(cc1Nc1nccc(N3CC(C(=O)O)c4ccccc43)n1)CN(C)CC2 (stereo not shown) [Example 163, 1-(2-((6-Methoxy-2-methyl-1,2,3,4-tetrahydroisoquinolin-7-yl)amino)pyrimidin-4-yl)indoline-3-carboxylic acid] | ≤ 100 nM | > 1000 nM | 456 |  |  |  |
